Data published in BindingDB's records for doi:10.1021/acs.biochem.6b00338 (University of California Santa Cruz, 2016).

Biological target: T1, Arachidonate 15-lipoxygenase (Pseudomonas aeruginosa, UniProt Q9I4G8)
T1 sequence (Q9I4G8 whole entry): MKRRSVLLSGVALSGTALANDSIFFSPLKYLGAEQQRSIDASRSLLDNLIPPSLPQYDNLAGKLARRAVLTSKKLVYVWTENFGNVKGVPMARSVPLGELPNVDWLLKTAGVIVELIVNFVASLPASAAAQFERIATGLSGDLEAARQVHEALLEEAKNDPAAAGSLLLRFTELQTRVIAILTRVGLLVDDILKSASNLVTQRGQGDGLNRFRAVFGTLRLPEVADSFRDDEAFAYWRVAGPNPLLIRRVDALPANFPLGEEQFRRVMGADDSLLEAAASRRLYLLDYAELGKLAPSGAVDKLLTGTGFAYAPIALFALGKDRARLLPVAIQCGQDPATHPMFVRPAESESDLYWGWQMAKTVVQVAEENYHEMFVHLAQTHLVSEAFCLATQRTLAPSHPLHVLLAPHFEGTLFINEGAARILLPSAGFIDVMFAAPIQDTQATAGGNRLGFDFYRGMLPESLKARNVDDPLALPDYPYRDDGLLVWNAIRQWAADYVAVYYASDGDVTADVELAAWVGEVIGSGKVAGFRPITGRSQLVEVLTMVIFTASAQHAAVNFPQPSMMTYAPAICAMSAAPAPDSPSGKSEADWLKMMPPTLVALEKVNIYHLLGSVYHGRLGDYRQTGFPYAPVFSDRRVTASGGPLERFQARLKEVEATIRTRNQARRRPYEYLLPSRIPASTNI
Assay: LoxA Selectivity Assay
Settings: pH 7; 25 °C
Method: The one-point inhibition percentages were determined for human LOX inhibitors by following the formation of the conjugated diene product at 234 nm (ε = 25,000 M−1 cm−1) at an inhibitor concentration of 25 μM. All reaction mixtures were 2 mL in volume and constantly stirred using a magnetic stir bar at room temperature (22 °C) with 7 nM LoxA. Reactions were conducted in 25 mM HEPES buffer (pH 7.0), 0.01% Triton X-100, and 10 μM AA. The concentration of AA was quantitatively determined by allowing the enzymatic reaction to go to completion. Confirmed hitswere then screened against the human isozymes 5-LOX, 15-LOX-1, 15-LOX-2, and 12-LOX for specificity.

Point of comparison: `O=C(OCC#CCSc1nnc(-c2cccc3ccccc23)o1)c1ccccc1` [4-(5-(Naphthalen-1-yl)-1,3,4-oxadiazol-2-ylthio)but-2-ynyl benzoate], IC50 10 nM. Against it:
- CCCCCCc1ccn(Cc2ccccc2C)c(=O)c1 [PT171] — 52-fold higher, 520 nM
- CC(Cc1ccc(O)c(O)c1)C(C)Cc1ccc(O)c(O)c1 (stereo not given) [LOX inhibitor, N/A] — 50-fold higher, 500 nM
- CCCCCCc1ccc(Oc2ccccc2F)c(O)c1 [PT113] — 100-fold higher, 1000 nM
- CCCCCCc1ccc(Oc2ccccc2Cl)c(O)c1 [PT91] — 260-fold higher, 2600 nM
